Results reported in ChEMBL document CHEMBL3822440, “Semi-synthesis and antiproliferative evaluation of PEGylated pentacyclic triterpenes” (Eur J Med Chem, 2016).
Activity calls are given as the source filed them. No cut-off for these calls is given here.

Key:
HepG2 [1] = assay: Cytotoxicity against human HepG2 cells assessed as growth inhibition after 72 hrs by MTT assay; format: functional, cell-based; conditions: HepG2, 72 h
HT-29 [2] = assay: Potency index, ratio of maslinic acid IC50 to compound IC50 for human HT-29 cells; format: functional
HepG2 [3] = assay: Potency index, ratio of maslinic acid IC50 to compound IC50 for human HepG2 cells; format: functional
[4] = Induction of apoptosis in mouse B16F10 cells assessed as live cells at cytotoxic IC50 after 72 hrs by Annexin V-FITC/propidium iodide staining based flow cytometry (reference value: 97.55 +/- 0.5%); format: functional, B16-F10
[5] = Induction of apoptosis in mouse B16F10 cells assessed as early apoptotic cells at cytotoxic IC50 after 72 hrs by Annexin V-FITC/propidium iodide staining based flow cytometry (reference value: 0.75 +/- 0.07%); format: functional, B16-F10
HepG2 [6] = assay: Induction of apoptosis in human HepG2 cells assessed as live cells at cytotoxic IC50 after 72 hrs by Annexin V-FITC/propidium iodide staining based flow cytometry (reference value: 99.55 +/- 0.07%); format: functional
HepG2 [7] = assay: Induction of apoptosis in human HepG2 cells assessed as late apoptotic cells at cytotoxic IC50 after 72 hrs by Annexin V-FITC/propidium iodide staining based flow cytometry relative to control; format: functional
HepG2 [8] = assay: Induction of apoptosis in human HepG2 cells assessed as necrotic cells at cytotoxic IC50 after 72 hrs by Annexin V-FITC/propidium iodide staining based flow cytometry (reference value: 0.1 +/- 0.01%); format: functional
[9] = Cell cycle arrest in mouse B16F10 cells assessed as accumulation at S phase at cytotoxic IC50 after 72 hrs by propidium iodide staining based flow cytometry (reference value: 48.31 +/- 0.74%); format: functional, B16-F10
HT-29 [10] = assay: Cell cycle arrest in human HT-29 cells assessed as accumulation at G2/M phase at cytotoxic IC50 after 72 hrs by propidium iodide staining based flow cytometry (reference value: 6.23 +/- 1.7%); format: functional
[11] = Disruption of mitochondrial membrane potential in mouse B16F10 cells assessed as rhodamine123 positive cells at cytotoxic IC50 after 72 hrs by propidium iodide staining based fluorescence spectroscopic analysis (reference value: 95.6 +/- 0.57%); format: functional, B16-F10
HepG2 [12] = assay: Disruption of mitochondrial membrane potential in human HepG2 cells assessed as rhodamine123 negative cells at cytotoxic IC50 after 72 hrs by propidium iodide staining based fluorescence spectroscopic analysis (reference value: 11.7 +/- 6.8%); format: functional
B16-F10 [13] = assay: Induction of apoptosis in mouse B16F10 cells assessed as nucleus containing nicked DNA at cytotoxic IC50 after 72 hrs by Hoechst staining based fluorescence microscopic analysis; format: functional, cell-based
B16-F10 [14] = assay: Induction of apoptosis in mouse B16F10 cells assessed as cell shrinkage at cytotoxic IC50 after 72 hrs by Hoechst staining based fluorescence microscopic analysis; format: functional
B16-F10 [15] = assay: Induction of apoptosis in mouse B16F10 cells assessed as loss of nuclear architecture at cytotoxic IC50 after 72 hrs by Hoechst staining based fluorescence microscopic analysis; format: functional, cell-based
HT-29 [16] = assay: Induction of apoptosis in human HT-29 cells assessed as nucleus containing nicked DNA at cytotoxic IC50 after 72 hrs by Hoechst staining based fluorescence microscopic analysis; format: functional, cell-based
HepG2 [17] = assay: Induction of apoptosis in human HepG2 cells assessed as nucleus containing nicked DNA at cytotoxic IC50 after 72 hrs by Hoechst staining based fluorescence microscopic analysis; format: functional, cell-based
HepG2 [18] = assay: Induction of apoptosis in human HepG2 cells assessed as spherical cell shape at cytotoxic IC50 after 72 hrs by Hoechst staining based fluorescence microscopic analysis; format: functional
HepG2 [19] = assay: Induction of apoptosis in human HepG2 cells assessed as disruption of cell membrane integrity at cytotoxic IC50 after 72 hrs by Hoechst staining based fluorescence microscopic analysis; format: functional

SMILES | IC50 (HepG2 [1]) | Ratio IC50 (HT-29 [2]) | Ratio IC50 (HepG2 [3]) | Activity [4] | Activity [5] | Activity (HepG2 [6]) | Activity (HepG2 [7]) | Activity (HepG2 [8]) | Activity [9] | Activity (HT-29 [10]) | Activity [11] | Activity (HepG2 [12]) | Activity (B16-F10 [13]) | Activity (B16-F10 [14]) | Activity (B16-F10 [15]) | Activity (HT-29 [16]) | Activity (HepG2 [17]) | Activity (HepG2 [18]) | Activity (HepG2 [19])
CC1(C)CC[C@]2(C(=O)NCCCOCCOCCOCCCN)CC[C@]3(C)C(=CC[C@@H]4[C@@]5(C)C[C@@H](O)[C@H](O)C(C)(C)[C@@H]5CC[C@]43C)[C@@H]2C1 | 7.68 µM | 2.7 | 12.9 | 0.9% | 60.25% | 19.75% | 33.05% | 0.4% | 22.44% | 13.1% | 48.05% | 40.85% | Active | Active | Active | Active | Active | Active | Active
COCCOCCOCC(=O)O[C@@H]1C[C@]2(C)[C@H]3CC=C4[C@@H]5CC(C)(C)CC[C@]5(C(=O)O)CC[C@@]4(C)[C@]3(C)CC[C@H]2C(C)(C)[C@H]1OC(=O)COCCOCCOC | 59.9 µM | 0.8 | 1.7 | 11.1% | 32.8% | 55.7% | 29.1% | 0.4% | 12.07% | 0.76% | 75.05% | 43.2% | Active | Active | Active | Active | Active | Active | Active
